Reference: ChEMBL document CHEMBL1201862, “PubChem BioAssay data set” (2004)
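1) Cells in 96-well plates. 2) Compound, 48 h, 5 concentrations. 3) Linear interpolation between surrounding doses. 4) Unreached endpoint = highest concentration. GI50 is the concentration that inhibits growth by half.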 The source made the active and inactive calls. Rule as the data show it: active = GI50 up to about 1.1 µM and inactive = higher.

Assays:
Test in all cases: NCI tumour cell line growth inhibition, 48 h
ACHN = tested on: ACHN
BT-549 = tested on: BT-549
HCC 2998 = tested on: HCC 2998
HCT-116 = tested on: HCT-116
HCT-15 = tested on: HCT-15
MDA-N = tested on: MDA-N
Malme-3M = tested on: Malme-3M
NCI-H522 = tested on: NCI-H522
NCI/ADR-RES = tested on: NCI/ADR-RES
RPMI-8226 = tested on: RPMI-8226
SF-268 = tested on: SF-268
SK-MEL-2 = tested on: SK-MEL-2
SK-OV-3 = tested on: SK-OV-3
SNB-19 = tested on: SNB-19
SR = tested on: SR
SW-620 = tested on: SW-620
T47D = tested on: T47D
TK-10 = tested on: TK-10
UACC-62 = tested on: UACC-62
UO-31 = tested on: UO-31

| SMILES | GI50 (ACHN) | GI50 (BT-549) | GI50 (HCC 2998) | GI50 (HCT-116) | GI50 (HCT-15) [µM] | GI50 (MDA-N) | GI50 (Malme-3M) | GI50 (NCI-H522) | GI50 (NCI/ADR-RES) | GI50 (RPMI-8226) | GI50 (SF-268) | GI50 (SK-MEL-2) | GI50 (SK-OV-3) | GI50 (SNB-19) | GI50 (SR) | GI50 (SW-620) | GI50 (T47D) | GI50 (TK-10) | GI50 (UACC-62) | GI50 (UO-31) |
| --- | --- | --- | --- | --- | --- | --- | --- | --- | --- | --- | --- | --- | --- | --- | --- | --- | --- | --- | --- | --- |
| O=C(Nc1ccc(Cl)cc1)c1cc(S(=O)(=O)NC2=Nc3ccc(Cl)cc3C(c3ccccc3)N2)c(SSc2cc(Cl)c(C(=O)Nc3ccc(Cl)cc3)cc2S(=O)(=O)NC2=Nc3ccc(Cl)cc3C(c3ccccc3)N2)cc1Cl (stereo not given) | > 100 µM (inactive) | > 100 µM (inactive) | > 100 µM (inactive) | > 100 µM (inactive) | > 100 | > 100 µM (inactive) | > 100 µM (inactive) | > 100 µM (inactive) | > 100 µM (inactive) | 97.1 µM (inactive) | > 100 µM (inactive) | > 100 µM (inactive) | > 100 µM (inactive) | > 100 µM (inactive) | 16.5 µM (inactive) | > 100 µM (inactive) | > 100 µM (inactive) | > 100 µM (inactive) | > 90.4 µM (inactive) | > 100 µM (inactive) |
| COc1cc2c(cc1OC)C1Cc3ccccc3CCN1CC2 (stereo not given) | > 100 µM (inactive) | > 100 µM (inactive) | 44 µM (inactive) | 39.1 µM (inactive) | > 100 | > 100 µM (inactive) | > 100 µM (inactive) | > 100 µM (inactive) | > 100 µM (inactive) | > 100 µM (inactive) | > 100 µM (inactive) | > 100 µM (inactive) | > 100 µM (inactive) | > 100 µM (inactive) | 92.9 µM (inactive) | > 100 µM (inactive) | > 100 µM (inactive) | > 100 µM (inactive) | > 100 µM (inactive) | 27.2 µM (inactive) |
| COc1cc(-c2cc(=O)c3cc4c(=O)cc(-c5cc(OC)c(OC)c(OC)c5)oc4cc3o2)cc(OC)c1OC | 25.1 µM (inactive) | 17.5 µM (inactive) | > 100 µM (inactive) | 30.9 µM (inactive) | > 100 | > 100 µM (inactive) | 43.2 µM (inactive) | 27.4 µM (inactive) | 65.9 µM (inactive) | > 100 µM (inactive) | 23.5 µM (inactive) | 16.7 µM (inactive) | 18.8 µM (inactive) | 16.4 µM (inactive) | > 100 µM (inactive) | > 100 µM (inactive) | > 54.8 µM (inactive) | 16.3 µM (inactive) | 13.9 µM (inactive) | > 100 µM (inactive) |
| C[C@]12C=CC(=O)C=C1CC[C@@H]1[C@@H]2CC[C@@]2(C)[C@H]1CC[C@]2(O)C(N)=O | > 100 µM (inactive) | > 100 µM (inactive) | > 100 µM (inactive) | > 100 µM (inactive) | > 100 | > 100 µM (inactive) | > 100 µM (inactive) | > 100 µM (inactive) | > 100 µM (inactive) | > 100 µM (inactive) | > 100 µM (inactive) | > 100 µM (inactive) | > 100 µM (inactive) | > 100 µM (inactive) | > 100 µM (inactive) | > 100 µM (inactive) | > 100 µM (inactive) | > 100 µM (inactive) | > 100 µM (inactive) | > 100 µM (inactive) |
| O=[N+]([O-])c1cccc2nc3ccccc3c(NCCO)c12 | 0.00151 µM (active) | 0.00514 µM (active) | 0.00166 µM (active) | 0.00202 µM (active) | 0.00133 | 0.002 µM (active) | 0.00331 µM (active) | 0.00248 µM (active) | 0.00566 µM (active) | 0.000682 µM (active) | 0.00326 µM (active) | 0.00502 µM (active) | 0.00387 µM (active) | 0.00977 µM (active) | 2.36e-05 µM (active) | 0.00118 µM (active) | 0.000611 µM (active) | 0.00269 µM (active) | 0.00237 µM (active) | 0.00244 µM (active) |
| N#Cc1c(O)c(/N=N/c2ccc(Cl)cc2)c(=O)n2c1[nH]c1ccccc12 | 36.1 µM (inactive) | 34.6 µM (inactive) | 41.5 µM (inactive) | 37.9 µM (inactive) | 28.1 | 38.7 µM (inactive) | 40.6 µM (inactive) | 33.3 µM (inactive) | 44 µM (inactive) | 21.5 µM (inactive) | 45 µM (inactive) | 45.8 µM (inactive) | 94 µM (inactive) | 47.3 µM (inactive) | 29.9 µM (inactive) | 63.2 µM (inactive) | 27.1 µM (inactive) | 54 µM (inactive) | 29.7 µM (inactive) | 49.9 µM (inactive) |
| C[N+]1(CC[N+]2(C)CCCC2c2cccnc2)CCCC1c1cccnc1 (stereo not given) | > 100 µM (inactive) | > 100 µM (inactive) | > 100 µM (inactive) | 96.6 µM (inactive) | > 100 | 32.5 µM (inactive) | 59.3 µM (inactive) | > 100 µM (inactive) | > 100 µM (inactive) | 97.7 µM (inactive) | > 100 µM (inactive) | > 100 µM (inactive) | > 100 µM (inactive) | > 100 µM (inactive) | > 100 µM (inactive) | > 100 µM (inactive) | 42.4 µM (inactive) | > 100 µM (inactive) | > 100 µM (inactive) | > 100 µM (inactive) |
| O=C(CCSC1=NCCCN1)c1ccc(F)cc1 | 15.5 µM (inactive) | 18.2 µM (inactive) | 18.6 µM (inactive) | 20.1 µM (inactive) | 13.1 | 17.3 µM (inactive) | 7.26 µM (inactive) | 2.08 µM (inactive) | 28.1 µM (inactive) | 2.15 µM (inactive) | 22.9 µM (inactive) | 18.2 µM (inactive) | 21.3 µM (inactive) | 22.1 µM (inactive) | 3.3 µM (inactive) | 2.86 µM (inactive) | 21.9 µM (inactive) | 15.8 µM (inactive) | 17.2 µM (inactive) | 5.83 µM (inactive) |
| O=C(CCc1ccc(O)c(O)c1)NCCc1ccc(O)c(O)c1 | > 100 µM (inactive) | > 100 µM (inactive) | > 100 µM (inactive) | 42.8 µM (inactive) | > 100 | 18.1 µM (inactive) | > 100 µM (inactive) | > 100 µM (inactive) | > 100 µM (inactive) | > 100 µM (inactive) | > 100 µM (inactive) | 83.9 µM (inactive) | > 100 µM (inactive) | > 100 µM (inactive) | 23.9 µM (inactive) | 67.6 µM (inactive) | > 100 µM (inactive) | > 100 µM (inactive) | > 100 µM (inactive) | > 100 µM (inactive) |
| NNC(=O)c1c(Cl)c(Cl)c(Cl)c(Cl)c1-c1nc2ccccc2[nH]1 | 17.1 µM (inactive) | 14.9 µM (inactive) | 8.63 µM (inactive) | 13.2 µM (inactive) | 5.07 | 2.94 µM (inactive) | 14.3 µM (inactive) | 13.4 µM (inactive) | 6.34 µM (inactive) | 7.4 µM (inactive) | 17.4 µM (inactive) | 6.41 µM (inactive) | 15.7 µM (inactive) | 19.6 µM (inactive) | 2.63 µM (inactive) | 10 µM (inactive) | 2.47 µM (inactive) | 21.6 µM (inactive) | 10.4 µM (inactive) | 19.4 µM (inactive) |
| Cn1c(NN)nc(-c2ccc([N+](=O)[O-])cc2)c(C#N)c1=O | 12.2 µM (inactive) | 12.7 µM (inactive) | 13.7 µM (inactive) | 12.8 µM (inactive) | 16.4 | 12.4 µM (inactive) | 16.1 µM (inactive) | 16.4 µM (inactive) | 31 µM (inactive) | 29.1 µM (inactive) | 16 µM (inactive) | 22.2 µM (inactive) | 14.9 µM (inactive) | 13.5 µM (inactive) | 18.7 µM (inactive) | 12.7 µM (inactive) | 15.8 µM (inactive) | 14.3 µM (inactive) | 15.6 µM (inactive) | 16.3 µM (inactive) |
| CCOc1cc(NC(C)=O)ccc1C(=O)NN1C(=O)C(Cl)C1c1ccccc1 (stereo not given) | 16.2 µM (inactive) | 11.4 µM (inactive) | 17.4 µM (inactive) | 17.5 µM (inactive) | 16.1 | 13.8 µM (inactive) | 11.2 µM (inactive) | 2.24 µM (inactive) | 25.1 µM (inactive) | 9.95 µM (inactive) | 16.7 µM (inactive) | 14.3 µM (inactive) | 16.9 µM (inactive) | 15.1 µM (inactive) | 4.34 µM (inactive) | 12.4 µM (inactive) | 12.5 µM (inactive) | 16.6 µM (inactive) | 11 µM (inactive) | 3.31 µM (inactive) |
| COc1cc(/C=C2/C[C@H]3[C@@H]4CC=C5C[C@@H](O)CC[C@]5(C)[C@H]4CC[C@]3(C)NC2=O)cc(OC)c1OC | 18.9 µM (inactive) | 15.2 µM (inactive) | 10.9 µM (inactive) | 22.1 µM (inactive) | 16.3 | 23 µM (inactive) | 13.3 µM (inactive) | 5.33 µM (inactive) | 15.8 µM (inactive) | 5.46 µM (inactive) | 9.12 µM (inactive) | 22 µM (inactive) | 31.6 µM (inactive) | 20.1 µM (inactive) | 39.8 µM (inactive) | > 73.8 µM (inactive) | 24.2 µM (inactive) | 23.6 µM (inactive) | 16.3 µM (inactive) | 9.68 µM (inactive) |
| COC(=O)/C=C1\CCCN1CCc1cc2c(cc1CC#N)OCO2 | > 100 µM (inactive) | 52.6 µM (inactive) | 28.1 µM (inactive) | 41.2 µM (inactive) | 43.2 | 18.3 µM (inactive) | > 100 µM (inactive) | > 100 µM (inactive) | 69.8 µM (inactive) | 37 µM (inactive) | > 100 µM (inactive) | 38.4 µM (inactive) | 34.9 µM (inactive) | 60 µM (inactive) | 16.5 µM (inactive) | 49.7 µM (inactive) | 38.7 µM (inactive) | > 100 µM (inactive) | 31.4 µM (inactive) | 23.8 µM (inactive) |
